Active and inactive are the calls of the source.
Tests used:
Danio rerio = test: In Vivo Angiogenesis Dose-Response Confirmation. [Related pubchem assays: 732 (Assay preceding this confirmatory assay.)]; assay type: functional, organism-based
[1] = molecular target: Serine/threonine-protein phosphatase (Homo sapiens, UniProt Q9BPW0); test: PP5 phosphatase inhibitors, dose response, biochemical, fluorescence (AID 2395)
[2] = molecular target: T1, Microphthalmia-associated transcription factor (Homo sapiens, UniProt O75030); test: TRPM1 promoter luciferase signal decrease, dose response, MITF inhibitor project, cell-based, SK-MEL-5, cherry-picked, set 3 (AID 493073); assay type: functional
T1 sequence (O75030 whole entry): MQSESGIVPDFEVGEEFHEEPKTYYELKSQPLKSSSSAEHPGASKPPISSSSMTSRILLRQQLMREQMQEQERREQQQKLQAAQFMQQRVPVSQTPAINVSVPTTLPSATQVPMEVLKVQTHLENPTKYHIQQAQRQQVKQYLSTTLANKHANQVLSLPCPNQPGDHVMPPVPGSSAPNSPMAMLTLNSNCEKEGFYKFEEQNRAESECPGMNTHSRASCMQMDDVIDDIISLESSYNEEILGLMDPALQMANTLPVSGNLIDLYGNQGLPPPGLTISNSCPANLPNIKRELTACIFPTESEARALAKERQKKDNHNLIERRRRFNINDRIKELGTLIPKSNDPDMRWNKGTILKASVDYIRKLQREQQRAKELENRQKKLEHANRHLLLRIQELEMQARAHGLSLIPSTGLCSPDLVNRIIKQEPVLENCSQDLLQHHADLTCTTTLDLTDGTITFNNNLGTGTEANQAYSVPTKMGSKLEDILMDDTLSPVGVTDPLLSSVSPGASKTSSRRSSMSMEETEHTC

[3] = growth suppression of PTEN-null colon cells, dose response, cell-based, HCT116 PTEN knockout (AID 1047); assay type: functional;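 note: HCT116 colon tumor cells with PTEN knocked out; cells exposed to compound for 60 hours before readout; potency for loss of cell viability measured by luminescence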
A-375 = test: A375 melanoma cell viability reduction, dose response, counter-screen for MITF modulator project, cherry-pick samples, set 2 (AID 540335); assay type: functional, cell-based; details: Homo sapiens
[4] = molecular target: T2, Heat shock factor protein 1 (Mus musculus, UniProt P38532); test: HSF1 potentiators in luciferase reporter cells, confirmation, cell-based, NIH3T3, luminescence, dose retest (AID 435004); assay type: functional;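 note: stress induced by proteasome inhibitor MG132 added 30 min after compound; luciferase reporter driven by HSF1 response element in NIH3T3 cells; actives raise luminescence as potentiators of the MG132 stress response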
T2 sequence (P38532 whole entry): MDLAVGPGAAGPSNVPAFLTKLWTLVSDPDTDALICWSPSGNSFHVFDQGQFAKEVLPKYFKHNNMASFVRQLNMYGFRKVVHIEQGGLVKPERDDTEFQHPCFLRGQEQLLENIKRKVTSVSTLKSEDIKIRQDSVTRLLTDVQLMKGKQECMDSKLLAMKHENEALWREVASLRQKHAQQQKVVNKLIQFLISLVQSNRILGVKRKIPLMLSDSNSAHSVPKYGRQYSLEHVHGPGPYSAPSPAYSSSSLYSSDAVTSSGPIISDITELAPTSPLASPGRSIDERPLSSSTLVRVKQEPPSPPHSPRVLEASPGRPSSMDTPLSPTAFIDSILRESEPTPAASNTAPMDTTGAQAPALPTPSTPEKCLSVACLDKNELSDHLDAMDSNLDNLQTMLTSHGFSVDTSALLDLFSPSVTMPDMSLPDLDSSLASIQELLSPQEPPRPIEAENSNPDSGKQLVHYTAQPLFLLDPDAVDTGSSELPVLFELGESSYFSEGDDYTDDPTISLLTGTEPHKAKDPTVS

[5] = molecular target: Serine/threonine-protein phosphatase PP1-alpha catalytic subunit (Homo sapiens, UniProt P62136); test: PP1 phosphatase inhibitors, dose response, biochemical, fluorescence (AID 2394)
Serine/threonine-protein phosphatase PP1-alpha catalytic subunit, sequence (P62136 whole entry): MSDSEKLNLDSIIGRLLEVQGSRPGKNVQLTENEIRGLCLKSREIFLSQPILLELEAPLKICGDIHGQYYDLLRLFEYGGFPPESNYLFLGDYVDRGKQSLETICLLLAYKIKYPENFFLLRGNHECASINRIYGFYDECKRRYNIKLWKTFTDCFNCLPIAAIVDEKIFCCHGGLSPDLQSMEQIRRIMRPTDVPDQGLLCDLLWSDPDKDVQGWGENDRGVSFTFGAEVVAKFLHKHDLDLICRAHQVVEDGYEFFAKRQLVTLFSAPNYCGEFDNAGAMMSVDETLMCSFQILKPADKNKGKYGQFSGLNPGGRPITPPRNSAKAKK

[6] = growth suppression of beta-catenin-knockout colon cells, dose response, cell-based, HCT116, human colon tumor (AID 1045); assay type: functional;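 note: HCT116 colon tumor cells with beta catenin knocked out; cells exposed to compound for 60 hours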
Beta-galactosidase = Beta-galactosidase (Escherichia coli, UniProt Q8VNN2); test: beta-galactosidase enzyme inhibitors and activators, dose response, artefact control for CCR6 antagonist project, biochemical, E. coli enzyme, set 3 (AID 504712); assay type: functional
Beta-galactosidase, sequence (Q8VNN2 whole entry): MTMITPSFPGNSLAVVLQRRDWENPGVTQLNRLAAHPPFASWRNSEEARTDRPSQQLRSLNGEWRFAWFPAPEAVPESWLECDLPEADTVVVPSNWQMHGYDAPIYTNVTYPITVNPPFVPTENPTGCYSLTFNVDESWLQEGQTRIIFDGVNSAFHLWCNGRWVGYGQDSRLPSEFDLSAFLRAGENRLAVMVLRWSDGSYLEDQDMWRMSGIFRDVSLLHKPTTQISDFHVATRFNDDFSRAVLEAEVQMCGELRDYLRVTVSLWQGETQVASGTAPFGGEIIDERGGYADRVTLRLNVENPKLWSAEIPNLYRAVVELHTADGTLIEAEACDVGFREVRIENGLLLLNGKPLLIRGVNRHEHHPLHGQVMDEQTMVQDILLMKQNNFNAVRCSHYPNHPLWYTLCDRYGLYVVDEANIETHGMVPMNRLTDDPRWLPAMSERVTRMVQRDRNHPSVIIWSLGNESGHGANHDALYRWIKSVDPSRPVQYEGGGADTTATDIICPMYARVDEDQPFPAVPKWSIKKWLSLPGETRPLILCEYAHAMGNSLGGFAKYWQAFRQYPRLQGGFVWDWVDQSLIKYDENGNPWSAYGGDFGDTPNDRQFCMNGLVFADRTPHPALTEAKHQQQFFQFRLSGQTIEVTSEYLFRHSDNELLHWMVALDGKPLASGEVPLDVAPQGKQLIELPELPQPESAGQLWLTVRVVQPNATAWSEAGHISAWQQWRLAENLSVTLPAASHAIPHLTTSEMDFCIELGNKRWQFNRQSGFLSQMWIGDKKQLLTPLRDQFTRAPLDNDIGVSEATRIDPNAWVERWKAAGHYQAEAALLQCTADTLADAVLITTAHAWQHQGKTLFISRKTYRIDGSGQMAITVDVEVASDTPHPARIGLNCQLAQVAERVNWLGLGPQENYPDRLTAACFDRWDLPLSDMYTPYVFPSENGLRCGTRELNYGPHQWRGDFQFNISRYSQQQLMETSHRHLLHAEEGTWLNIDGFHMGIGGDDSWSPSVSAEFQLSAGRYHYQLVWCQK

[7] = molecular target: G-protein coupled receptor 183 (Homo sapiens, UniProt P32249); test: SAR confirmation of small molecule antagonists of the EBI2 receptor via a luminescent beta-arrestin assa.; assay type: functional
G-protein coupled receptor 183, sequence (P32249 whole entry): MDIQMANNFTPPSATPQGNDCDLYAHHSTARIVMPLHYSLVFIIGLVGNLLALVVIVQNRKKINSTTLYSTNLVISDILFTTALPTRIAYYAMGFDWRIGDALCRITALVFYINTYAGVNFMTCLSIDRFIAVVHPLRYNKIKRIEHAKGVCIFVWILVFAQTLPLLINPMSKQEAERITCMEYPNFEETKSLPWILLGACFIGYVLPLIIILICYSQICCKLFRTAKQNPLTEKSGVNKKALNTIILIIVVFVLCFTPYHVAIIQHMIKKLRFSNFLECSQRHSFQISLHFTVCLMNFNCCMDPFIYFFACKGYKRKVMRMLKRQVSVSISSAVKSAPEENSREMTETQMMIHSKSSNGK

14-3-3 protein gamma = 14-3-3 protein gamma (Homo sapiens, UniProt P61981); test: modulators of 14-3-3 gamma client binding – dose response (AID 711); assay type: functional
14-3-3 protein gamma, sequence (P61981 whole entry): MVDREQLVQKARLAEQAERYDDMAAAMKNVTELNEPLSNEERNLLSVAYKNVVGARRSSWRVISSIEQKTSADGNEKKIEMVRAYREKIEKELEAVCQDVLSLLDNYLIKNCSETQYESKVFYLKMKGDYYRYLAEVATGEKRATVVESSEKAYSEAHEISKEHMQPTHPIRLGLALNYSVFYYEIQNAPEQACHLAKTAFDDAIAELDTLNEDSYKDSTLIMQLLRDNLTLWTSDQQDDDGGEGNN

[8] = molecular target: Photoreceptor-specific nuclear receptor (Homo sapiens, UniProt Q9Y5X4); test: NR2E3 inverse agonists, dose response, biochemical, TR-FRET (AID 463256); assay type: functional
Photoreceptor-specific nuclear receptor, sequence (Q9Y5X4 whole entry): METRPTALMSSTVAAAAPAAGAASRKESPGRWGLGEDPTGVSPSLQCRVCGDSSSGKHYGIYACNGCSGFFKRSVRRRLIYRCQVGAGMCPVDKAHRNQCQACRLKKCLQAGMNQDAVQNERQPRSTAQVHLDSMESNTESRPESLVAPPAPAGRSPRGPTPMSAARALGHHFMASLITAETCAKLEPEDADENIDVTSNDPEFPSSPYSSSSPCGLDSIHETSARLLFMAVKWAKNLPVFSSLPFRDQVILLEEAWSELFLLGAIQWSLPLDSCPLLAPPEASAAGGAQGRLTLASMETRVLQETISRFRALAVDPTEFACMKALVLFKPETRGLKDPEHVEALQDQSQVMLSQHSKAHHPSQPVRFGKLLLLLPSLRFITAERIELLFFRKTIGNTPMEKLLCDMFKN

[9] = molecular target: Peroxisome proliferator-activated receptor gamma/Nuclear receptor corepressor 2 (Homo sapiens, UniProt P37231+Q9Y618); test: Counterscreen for NR2E3 inverse agonists: TR-FRET-based biochemical high throughput dose response assay to identify inverse agonists of the interaction between peroxisome proliferator-activated receptor gamma (PPARg) and nuclear receptor co-repressor 2 (NCOR2).; assay type: functional
[10] = P. falciparum Dd2 growth inhibitors, dose response, SYBR Green, dry powder samples, set 9 (AID 1159568); assay type: functional, cell-based
[11] = P. falciparum 3D7-ScDHODH growth inhibitors, dose response, SYBR Green, dry powder samples (AID 1159570); assay type: functional, cell-based;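 note: parasite growth measured after 72 hours of compound exposure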
[12] = P. falciparum Dd2 growth inhibitors, dose response, SYBR Green, dry powder samples (AID 1159566); assay type: functional, cell-based;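 note: potency for growth inhibition with lower SYBR green DNA signal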
[13] = P. falciparum ATP4 D1247Y mutant growth inhibitors, dose response, NITD609-resistant line, SYBR Green, dry powder (AID 1159571); assay type: functional, cell-based;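 note: parasites synchronized at ring stage by sorbitol before testing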
[14] = HepG2 cell cytotoxicity, dose response, cytotoxicity control, plate reader, dry powder samples (AID 1159569); assay type: functional, cell-based;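 note: inhibitor potency with signal falling toward the positive control level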
[15] = Plasmodium falciparum Dd2 Sybr green parasite growth Measured in Cell-Based and Microorganism Combination System Using Plate Reader - 2153-01_Inhibitor_Dose_DryPowder_Activity_Set3.; assay type: functional
[16] = P. falciparum Dd2 growth inhibitors, dose response, SYBR Green, cherry-picked samples (AID 1159567); assay type: functional, cell-based
[17] = cytotoxicity toward Colo320 cells – cell-based, CellTiter-Glo luminescence, IC50, dose response (AID 1117334); assay type: functional; details: COLO 320
[18] = RKO cell viability reduction, dose response, CellTiter-Glo luminescence (AID 1117322); assay type: functional
[19] = Concentration-dependent survival of SW480 colon cancer line, luminescence detection with CellTiter-Glo, half-maximal inhibitory concentration (AID 1117338); assay type: functional
[20] = CellTiter-Glo luminescent dose response of DLD-1 viability loss (AID 1117352); assay type: functional
[21] = cytotoxicity toward HCT116 cells – cell-based, CellTiter-Glo luminescence, IC50, dose response (AID 1117332); assay type: functional; details: HCT-116
[22] = HCT116 cell viability decrease, GSK3B pretreatment – CellTiter-Glo, IC50, dose response (AID 1117339); assay type: functional; details: HCT-116
[23] = SNU-C1 cell viability reduction, dose response, CellTiter-Glo luminescence (AID 1117323); assay type: functional, cell-based
[24] = cytotoxicity toward HT-29 cells – cell-based, CellTiter-Glo luminescence, IC50, dose response (AID 1117330); assay type: functional

Serine/threonine-protein phosphatase, sequence (Q9BPW0 whole entry): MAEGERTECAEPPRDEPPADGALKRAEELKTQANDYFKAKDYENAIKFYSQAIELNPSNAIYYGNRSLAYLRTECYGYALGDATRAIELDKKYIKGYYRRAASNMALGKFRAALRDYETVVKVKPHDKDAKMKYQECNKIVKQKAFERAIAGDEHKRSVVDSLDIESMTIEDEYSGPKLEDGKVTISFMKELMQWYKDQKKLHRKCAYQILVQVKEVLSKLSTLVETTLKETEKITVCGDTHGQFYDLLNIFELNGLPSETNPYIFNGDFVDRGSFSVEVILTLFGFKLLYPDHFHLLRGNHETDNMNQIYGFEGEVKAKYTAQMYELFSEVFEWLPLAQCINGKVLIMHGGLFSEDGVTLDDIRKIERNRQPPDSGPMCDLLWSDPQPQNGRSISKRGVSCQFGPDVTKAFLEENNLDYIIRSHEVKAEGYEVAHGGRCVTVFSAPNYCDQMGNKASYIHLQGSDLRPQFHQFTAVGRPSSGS

For O=C1Nc2ccc(F)cc2/C1=C1/Nc2ccccc2/C1=N\OCCN1CCNCC1, which IC50 (Danio rerio) is on record?
Its IC50 is 13.1 µM (not active).

With O=C1C(Cl)=C(N2CCN(c3ccccc3[N+](=O)[O-])CC2)C(=O)c2ccccc21 as the compound, how does the IC50 [1] read?
The IC50 was 29.5 µM (not active).

What about the AC50 [2] of the same compound?
The AC50 was 3.59 µM (active).

And the EC50 [3]?
The EC50 was 5.82 µM (active).

And the AC50 (A-375)?
Its AC50 is 15.6 µM (active).

And the EC50 [4]?
Its EC50 is 0.734 µM (inconclusive).

And the IC50 [5]?
The IC50 was > 67 µM (not active).

What about the EC50 [6] of the same compound?
The EC50 was 4.51 µM (active).

And the IC50 (Beta-galactosidase)?
The IC50 was > 66.6 µM (inactive).

For O=C(/C=C/c1ccc(F)cc1)N1CCN(S(=O)(=O)c2ccc3ccccc3c2)CC1, which IC50 [7] is on record?
Its IC50 is 0.0212 µM (active).

For Cc1ccc(-n2c(=O)[nH]cc(C(=O)Nc3ccc4c(c3)OCCO4)c2=O)cc1C, which IC50 (14-3-3 protein gamma) is on record?
Its IC50 is > 50 µM (not active).

Which IC50 [8] does the source give for O=C(NCc1ccccn1)c1cccn1-c1ncc(C(F)(F)F)cc1Cl here?
The IC50 was 9.98 µM (active).

And the IC50 [9]?
The IC50 was 9.96 µM (active).

For CO[C@@H]1CN(C)C(=O)c2ccc(NC(=O)NC(C)C)cc2OC[C@@H](C)N(Cc2ccccc2)C[C@H]1C, which AC50 [10] is on record?
Its AC50 is 0.493 µM (active).

What about the AC50 [11] of the same compound?
Its AC50 is 5.13 µM (active).

What about the AC50 [12] of the same compound?
The AC50 was 0.299 µM (active).

What about the AC50 [13] of the same compound?
Its AC50 is 1.9 µM (active).

What about the AC50 [14] of the same compound?
Its AC50 is > 100 µM (inactive).

What about the AC50 [15] of the same compound?
The AC50 was 1.4 µM (active).

What about the AC50 [16] of the same compound?
The AC50 was 1.78 µM (active).

Which IC50 [17] does the source give for Cc1c(O)cc2c(c1C)O[C@](C)(CCC[C@H](C)CCC[C@H](C)CCCC(C)C)CC2 here?
Its IC50 is > 20 µM (inactive).

And the IC50 [18]?
Its IC50 is > 20 µM (inactive).

And the IC50 [19]?
The IC50 was > 20 µM (inactive).

And the IC50 [20]?
Its IC50 is > 20 µM (inactive).

What about the IC50 [21] of the same compound?
The IC50 was > 20 µM (inactive).

And the IC50 [22]?
The IC50 was > 20 µM (inactive).

And the IC50 [23]?
Its IC50 is > 20 µM (inactive).

What about the IC50 [24] of the same compound?
Its IC50 is > 20 µM (inactive).
